This note sets out measurements from PubChem BioAssay (NCI).

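Method: 48-hour compound exposure of cells in 96-well plates, five concentrations, linear interpolation of endpoints. TGI marks complete inhibition of growth.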 A value given as a limit tells only on which side of the number the result lay.

Some test systems named below: HCT-116 colon; MALME-3M melanoma; SW-620 colon; EKVX NSCLC; TK-10 renal; SR leukemia; SN12C renal; MDA-MB-435; UACC-257 melanoma; NCI-H522 lung; SF-539 CNS; HT29 colon; OVCAR-3 ovarian; NCI-H23 lung; OVCAR-5 ovarian; A549 NSCLC; UACC-62 melanoma; SF-295 CNS; SK-OV-3 ovarian.
Common to all, as to assay: inhibition of tumour cell growth, NCI panel, 48 h

As for `Clc1ccc(C2C3COc4ccccc4C3=NN2c2ccccc2)cc1` (stereo not drawn), the TGI is > 100 µM with HCT-116 colon; > 100 µM in the assay with MALME-3M melanoma; > 32.7 µM in the assay on SW-620 colon; > 100 µM in the assay with EKVX NSCLC; > 100 µM in the assay with TK-10 renal; 1.78 µM in the assay on SR leukemia. In addition, the TGI with SN12C renal, with MDA-MB-435, in the assay with UACC-257 melanoma, in the assay on NCI-H522 lung, in the assay on SF-539 CNS and with HT29 colon was > 100 µM throughout. Also, the TGI in the assay with OVCAR-3 ovarian, in the assay with NCI-H23 lung, in the assay with OVCAR-5 ovarian, in the assay on A549 NSCLC, with UACC-62 melanoma and with SF-295 CNS was > 100 µM each time. Also, the TGI in the assay on SK-OV-3 ovarian was > 100 µM.
Turning to `O=[N+]([O-])/C(C(Cl)=C(Cl)Cl)=C(/Cl)Sc1ccccc1`, the TGI worked out at 2.58 µM in the assay on HCT-116 colon; 3.03 µM in the assay on MALME-3M melanoma; 1.07 µM in the assay on SW-620 colon; 33.4 µM with EKVX NSCLC; 5.9 µM with TK-10 renal; 2.38 µM in the assay with SR leukemia. The TGI turned out to be 3.55 µM in the assay with SN12C renal; 3.29 µM with MDA-MB-435; 2.55 µM in the assay with UACC-257 melanoma; 4.42 µM in the assay on NCI-H522 lung; 3.78 µM in the assay with SF-539 CNS; 6.12 µM with HT29 colon. Further, the TGI in the assay with OVCAR-3 ovarian is 3.61 µM; in the assay on NCI-H23 lung, 4.1 µM; in the assay with OVCAR-5 ovarian, 3.9 µM; in the assay on A549 NSCLC, 13.5 µM; in the assay with UACC-62 melanoma, 3.36 µM; in the assay with SF-295 CNS, 37.6 µM. For the same compound, the TGI with SK-OV-3 ovarian was 34.3 µM.
In the case of `CC1OC(OC2C(O)COC(OC3C(C)OC(OC4C(OC(=O)[C@]56CCC(C)(C)C[C@@H]5C5=CCC7[C@@]8(C)C[C@H](O)[C@H](OC9OC(CO)C(O)C(O)C9O)[C@@](C)(CO)[C@@H]8CC[C@@]7(C)[C@]5(C)CC6)OCC(O)C4O)C(O)C3OC3OCC(O)(CO)C3O)C2O)C(O)C(O)C1O` (stereo partly drawn), the TGI with HCT-116 colon stood at 30.6 µM; in the assay with MALME-3M melanoma, 33.8 µM; in the assay with SW-620 colon it was 31.6 µM; with EKVX NSCLC it was 15.8 µM; in the assay with TK-10 renal, 32.1 µM; with SR leukemia, 38 µM. Moreover, the TGI in the assay with SN12C renal worked out at 16.4 µM; in the assay with MDA-MB-435 it was 47.3 µM; in the assay on UACC-257 melanoma it was 28.5 µM; in the assay with NCI-H522 lung, 35.7 µM; in the assay with SF-539 CNS it was 44.8 µM; in the assay with HT29 colon, 37.4 µM. Moreover, the TGI with OVCAR-3 ovarian amounted to 40.8 µM; in the assay on NCI-H23 lung, 27.1 µM; with OVCAR-5 ovarian it was 24.3 µM; in the assay on A549 NSCLC it was 18 µM; in the assay on UACC-62 melanoma it was 31.6 µM; in the assay with SF-295 CNS it was 32.2 µM. In addition, the TGI with SK-OV-3 ovarian was 34.8 µM.
Consider `O=C(Oc1ccccn1)c1cc2cc(CCl)ccc2oc1=O`, for which the TGI in the assay on HCT-116 colon is 69.4 µM; in the assay on MALME-3M melanoma, 31.3 µM; in the assay on SW-620 colon, > 100 µM; with EKVX NSCLC, > 100 µM; in the assay with TK-10 renal, > 100 µM; with SR leukemia, > 100 µM. For the same compound, the TGI was 56.7 µM in the assay with SN12C renal; > 100 µM in the assay on MDA-MB-435; > 100 µM with UACC-257 melanoma; 30.3 µM in the assay on NCI-H522 lung; > 100 µM with SF-539 CNS; > 100 µM in the assay on HT29 colon. The TGI in the assay with OVCAR-3 ovarian is 38.1 µM; in the assay with NCI-H23 lung it was 62.7 µM; in the assay on OVCAR-5 ovarian, > 100 µM; in the assay on A549 NSCLC it was > 100 µM; in the assay with UACC-62 melanoma, 85.6 µM; in the assay on SF-295 CNS, > 100 µM. The TGI with SK-OV-3 ovarian is > 100 µM.
As to `CC(=O)c1[nH]c(NCc2ccccc2)c(C(=S)Nc2ccccc2)c1N`, the TGI is 34.1 µM with HCT-116 colon; 38.6 µM in the assay with MALME-3M melanoma; > 100 µM in the assay on SW-620 colon; > 100 µM in the assay with EKVX NSCLC; 63.8 µM in the assay on TK-10 renal; > 100 µM in the assay on SR leukemia. The TGI with SN12C renal was 50.8 µM; with MDA-MB-435 it was 33.9 µM; in the assay with UACC-257 melanoma it was 49.2 µM; in the assay with NCI-H522 lung, 0.166 µM; in the assay with SF-539 CNS it was 32.1 µM; with HT29 colon, > 100 µM. The TGI with OVCAR-3 ovarian was 97.9 µM; with NCI-H23 lung, > 100 µM; in the assay with OVCAR-5 ovarian, 55.1 µM; in the assay on A549 NSCLC it was 93.9 µM; with UACC-62 melanoma, 32.5 µM; in the assay with SF-295 CNS it was 66 µM. In addition, in the assay with SK-OV-3 ovarian, the TGI was > 100 µM.
On to `CCOC(=O)c1nnc2c(C(=O)OCC)c3ccccc3n2c1N`, for which the TGI was > 100 µM with HCT-116 colon; 7.57 µM in the assay with MALME-3M melanoma; > 100 µM in the assay with SW-620 colon; > 100 µM in the assay on EKVX NSCLC; > 100 µM in the assay on TK-10 renal; > 100 µM in the assay on SR leukemia. The TGI was 81.6 µM in the assay with SN12C renal; > 100 µM in the assay on MDA-MB-435; 11.1 µM with UACC-257 melanoma; > 100 µM with NCI-H522 lung; > 100 µM with SF-539 CNS; > 100 µM with HT29 colon. For the same compound, the TGI is > 100 µM in the assay with OVCAR-3 ovarian; > 100 µM in the assay on NCI-H23 lung; > 100 µM in the assay with OVCAR-5 ovarian; > 100 µM in the assay with A549 NSCLC; 9.25 µM with UACC-62 melanoma; > 100 µM with SF-295 CNS. Further, in the assay with SK-OV-3 ovarian, the TGI came out at 91.8 µM.
On to `COC(=O)C(Cc1c[nH]c2ccccc12)NP(=O)(O)OCC1OC(n2cc(I)c(=O)[nH]c2=O)CC1O` (stereo not drawn), for which the TGI in the assay on HCT-116 colon, with MALME-3M melanoma, in the assay on SW-620 colon, in the assay on EKVX NSCLC, with TK-10 renal and in the assay on SR leukemia was > 100 µM each time. In addition, the TGI in the assay on SN12C renal, in the assay on MDA-MB-435, in the assay on UACC-257 melanoma, with NCI-H522 lung, with SF-539 CNS and with HT29 colon was > 100 µM in each case. For the same compound, the TGI with OVCAR-3 ovarian, in the assay with NCI-H23 lung, in the assay on OVCAR-5 ovarian, with A549 NSCLC, in the assay with UACC-62 melanoma and with SF-295 CNS was > 100 µM throughout. The TGI with SK-OV-3 ovarian is > 100 µM.
